Reference: patent publication US20260191815A1, “THIOACRYLAMIDE DERIVATIVES FOR USE IN THE PREVENTION OR TREATMENT OF LIVER FIBROSIS” (CMR CUREDIAB METABOLIC RESEARCH GMBH, priority 2022, published 2026)

Experiments:
[1] = tested on: 3D primary human hepatocyte (PHH) spheroid NASH model; test: Viability (ATP, CellTiter-Glo) of 3D PHH:NPC spheroids; format: cell-based; conditions: 0.1 μM to 10 μM, up to 2 weeks
Protocol: (§1) Experiments were conducted using HepaPredict's (HepaPredict AB, Sweden) 3D primary human hepatocyte (PHH) spheroid NASH model (e.g. as published in Bell et al. Sci Rep. 2016 May 4; 6:25187. doi: 10.1038/srep25187).
Cryopreserved primary human hepatocytes were obtained from BioIVT (USA) and nonparenchymal cells (NPC) from LifeNetHealth (USA). After thawing, PHH-NPC cocultures were seeded in a multi-well 96-well Elplasia plate (Corning) in William's E medium containing 11 mM glucose, 10 μg/mL (control) or 10 mg/mL insulin (NASH), 100 nM dexamethasone, 5.5 mg/L transferrin, 6.7 μg/L selenite, 2 mM L-glutamine, 1 U/mL penicillin, 0.1 mg/mL streptomycin, and 10% fetal bovine serum (FBS). […]
After spheroid formation, cells were exposed to up to five different concentrations of the candidate molecules HK1 or HK3 (0.1 μM, 0.3 μM, 1 μM, 3 μM, and 10 μM) with or without FFA in the culture medium. […] All endpoints were evaluated after 14 days of exposure. […]
Viability was evaluated by ATP quantification using the CellTiter-Glo Luminescent Cell Viability Assay (Promega) according to the manufacturer's instructions. […] Subsequently, luminescence signals were measured using a SpectraMax iD5 multi-mode microplate reader (Molecular Devices). Viability was evaluated after up to two weeks of exposure and values are plotted as relative to vehicle (DMSO) controls with or without FFA. […]

[2] = tested on: interleukin-6 (IL-6) secretion by LX2 cells; test: Olink Inflammation immunoassay of LX2 supernatants: IL-6; format: cell-based, human; conditions: for amount of secreted IL-6 after combined treatment with TGF-β1: 10 μM + 5 ng/ml TGF-β1, LX2 cells
Protocol: The human hepatic stellate cell line LX2 was purchased from Merck. The cells were used up to passage ten and incubated under sterile conditions at 37° C. and 5% CO2. The cells were cultivated in medium containing Dulbecco's Modified Eagle's Medium with 4.5 g/l glucose (ThermoFisher), 4 mmol/l glutamine (ThermoFisher), 2% fetal bovine serum (FBS) (Merck), 100 U/ml penicillin and 100 μg/ml streptomycin (Merck). After 2 days, LX2 cells were starved for FBS for 24 h and then pretreated with 10 μM HK1 (Taros Chemicals GmbH & Co. KG) or 10 μM HK3 (Taros Chemicals GmbH & Co. KG) for 30 min. Subsequently, 5 ng/ml recombinant TGF-β1 (R&D Systems, Minneapolis, MN, USA) was added to the hepatic stellate cell cultures for 24 h. LX2 cells were also incubated with 5 ng/ml TGF-β1 alone as positive control for the hepatic stellate cell activation. Recombinant TGF-β1 was dissolved in sterile 4 mmol/l HCl (Merck) containing 0.1% bovine serum albumin (Roth Karlsruhe, Germany) as carrier protein. HK1 and HK3 were dissolved in sterile dimethyl sulfoxide (DMSO) (Sigma-Aldrich, Munich, Germany). Stimulations with 10 μM HK1, 10 μM HK3 and the corresponding vehicles (HCl and DMSO with or without HCl) alone for 24 h were also included as treatments.
LX2 cells were cultured and treated as described in Example 1. After the incubation time, the supernatants of LX2 cells were collected, centrifuged for 10 min at 2000×g at 4° C. and transferred to new tubes to measure 92 proteins in the cell culture supernatants simultaneously using the Olink Inflammation multiplex immunoassay (Olink proteomics, Uppsala, Sweden). This panel covers 92 proteins, including pro- and anti-inflammatory cytokines, growth factors, chemokines and factors involved in biological processes such as apoptosis, inflammatory and immune response, cell adhesion, chemotaxis, or fibrosis. This protein quantification method is based on a proximity extension assay technology, which combines a dual-recognition immunoassay using two matched antibodies labelled with DNA oligonucleotides, with a polymerase chain reaction (PCR) amplification and a microfluidic quantitative real-time PCR as readout. The biomarker concentrations are given as normalized protein expression (NPX) values, which were generated from the threshold cycle values from the qPCR, and represent an arbitrary unit on a log 2 scale.
Differences were analysed by one-way ANOVA followed by the Tukey method as correction for multiple testing.

[3] = tested on: 3D primary human hepatocyte (PHH) spheroid NASH model; test: Intracellular lipid accumulation (AdipoRed) in 3D PHH:NPC NASH spheroids; format: cell-based; conditions: NASH medium; for lipid contents of spheroids compared to NASH (100%): 1 week of exposure
Protocol: as §1
Cryopreserved primary human hepatocytes were obtained from BioIVT (USA) and nonparenchymal cells (NPC) from LifeNetHealth (USA). After thawing, PHH-NPC cocultures were seeded in a multi-well 96-well Elplasia plate (Corning) in William's E medium containing 11 mM glucose, 10 μg/mL (control) or 10 mg/mL insulin (NASH), 100 nM dexamethasone, 5.5 mg/L transferrin, 6.7 μg/L selenite, 2 mM L-glutamine, 1 U/mL penicillin, 0.1 mg/mL streptomycin, and 10% fetal bovine serum (FBS). PHH-NPC cocultures were seeded in ratio of 6:1 PHH:NPC with a total of 40,000 PHH per well. When spheroids were formed, FBS was phased out and spheroids were maintained in either the same media to provide the negative control (“Ctrl”), or with addition of albumin-conjugated free fatty acid (FFA), comprised of 240 μM palmitic acid and 240 μM oleic acid (NASH medium) to provide the positive control (“NASH”). Compound exposure was conducted in NASH medium with medium exchanges every 48-72 hours.
For cell viability and intracellular lipid accumulation assays, cells were seeded as previously reported (Bell et al., SciRep, 2016). In short, PHH and NPC were seeded as a single spheroid per well into 96-well ultra-low attachment (ULA) plates (Corning) at 1,500 viable cells per well with the PHH:NPC ratio 6:1.
After spheroid formation, cells were exposed to up to five different concentrations of the candidate molecules HK1 or HK3 (0.1 μM, 0.3 μM, 1 μM, 3 μM, and 10 μM) with or without FFA in the culture medium. All compound stocks and dilutions were prepared in DMSO, aliquoted and stored protected from light at −20° C. Fresh dosing solutions were prepared from these aliquots on each dosing day. All endpoints were evaluated after 14 days of exposure.
For statistical comparisons, normalized values for a given condition were compared to either the corresponding vehicle (DMSO) controls or the respective FFA (NASH) controls at the same time point using heteroscedastic unpaired two-tailed t-tests.
Intracellular lipid accumulation was quantified using the AdipoRed Adipogenesis Assay Kit (Lonza) following the manufacturer's instructions. […] Afterwards, spheroids were disrupted by vigorous pipetting and fluorescence was measured (Ex/Em: 485/572) using a SpectraMax iD5 multi-mode microplate reader (Molecular Devices).
To evaluate whether the two candidate compounds HK1 and HK3 impacted hepatic steatosis, we assessed their impact on intracellular triglyceride accumulation after 1 week of exposure. […]

Compound | viability of the spheroids (ATP) relative to vehicle (DMSO) [1] | amount of secreted IL-6 after combined treatment with TGF-β1 [2] | accumulation of intracellular lipids compared to the positive control ([3]; across 1 μM, 3 μM and 10 μM, 1 week) | attenuation of protein content of IL-6 compared to TGF-treated LX2 cells ([2]; 10 μM + 5 ng/ml TGF-β1) [%] | lipid contents of spheroids compared to NASH (100%) ([3]; 1 μM) [%] | lipid contents of spheroids compared to NASH (100%) ([3]; 3 μM) [%] | lipid contents of spheroids compared to NASH (100%) ([3]; 10 μM) [%]
Cc1cc(NC(=S)/C(C#N)=C(\O)C2CC2)ccc1[N+](=O)[O-] [HK3, 2-Cyano-3-cyclopropyl-3-hydroxy-N-(3-methyl-4-nitro-phenyl)-thioacrylamide] | did not affect | downregulated | 46-49% | – | – | – | –
Cc1cc(NC(=S)/C(C#N)=C(\O)C2CC2)ccc1F [HK1, 2-Cyano-3-cyclopropyl-N-(4-fluoro-3-methyl-phenyl)-3-hydroxy-thioacrylamide] | did not affect | downregulated | – | 59 | 79 | 81 | 62
